Laboratory results reported in PubChem BioAssay AID2060887 (Molecular Pharmacology Branch, DTP, NCI, 2025).
Where “and” joins values, the source holds several entries; their conditions need not be identical. Identical values can stand only once.

Tested on: 782815-120-R-J1-PDC complex spheroid viability
Assay: Anticancer human tumor 782815-120-R-J1-PDC patient-derived colon adenocarcinoma cell line growth inhibition [RAS]
Settings: for viability, T/C: stronger effect = lower value
Summary of the method: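 Agents were tested in combination matrices in half-log decrements from a top concentration at or near clinical Cmax (10 microM if undetermined). Targets were multi-cell spheroids of tumour lines plus HUVEC and MSC stromal cells.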

[1] = curve of first compound, second compound 0.00316 µM
[2] = curve of first compound, second compound 0.01 µM
[3] = curve of first compound, second compound 0.0316 µM
[4] = curve of first compound, second compound 0.1 µM
[5] = curve of first compound, second compound 0.316 µM
[6] = curve of first compound, second compound 1 µM
[7] = second compound 0.00316 µM, first compound 0.0316 µM
[8] = second compound 0.00316 µM, first compound 0.1 µM
[9] = second compound 0.00316 µM, first compound 0.316 µM
[10] = second compound 0.00316 µM, first compound 1 µM
[11] = second compound 0.01 µM, first compound 0.0316 µM
[12] = second compound 0.01 µM, first compound 0.1 µM
[13] = second compound 0.01 µM, first compound 0.316 µM
[14] = second compound 0.01 µM, first compound 1 µM
[15] = second compound 0.0316 µM, first compound 0.0316 µM
[16] = second compound 0.0316 µM, first compound 0.1 µM
[17] = second compound 0.0316 µM, first compound 0.316 µM
[18] = second compound 0.0316 µM, first compound 1 µM
[19] = second compound 0.1 µM, first compound 0.0316 µM
[20] = second compound 0.1 µM, first compound 0.1 µM
[21] = second compound 0.1 µM, first compound 0.316 µM
[22] = second compound 0.1 µM, first compound 1 µM
[23] = second compound 0.316 µM, first compound 0.0316 µM
[24] = second compound 0.316 µM, first compound 0.1 µM
[25] = second compound 0.316 µM, first compound 0.316 µM
[26] = second compound 0.316 µM, first compound 1 µM
[27] = second compound 1 µM, first compound 0.0316 µM
[28] = second compound 1 µM, first compound 0.1 µM
[29] = second compound 1 µM, first compound 0.316 µM
[30] = second compound 1 µM, first compound 1 µM
[31] = second compound 0.00316 µM, first compound 0.00316 µM
[32] = second compound 0.00316 µM, first compound 0.01 µM
[33] = second compound 0.01 µM, first compound 0.00316 µM
[34] = second compound 0.01 µM, first compound 0.01 µM
[35] = second compound 0.0316 µM, first compound 0.00316 µM
[36] = second compound 0.0316 µM, first compound 0.01 µM
[37] = second compound 0.1 µM, first compound 0.00316 µM
[38] = second compound 0.1 µM, first compound 0.01 µM
[39] = second compound 0.316 µM, first compound 0.00316 µM
[40] = second compound 0.316 µM, first compound 0.01 µM
[41] = second compound 1 µM, first compound 0.00316 µM
[42] = second compound 1 µM, first compound 0.01 µM
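Also: spheroids exposed to compounds for 7 days before reading.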
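For viability, T/C in this document: 100% = DMSO vehicle control viability.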

Structure (SMILES): Cc1nc(N2CCC3(CC2)COC(C)C3N)c(CO)nc1Sc1ccnc(N)c1Cl (centres undefined) + C=CC(=O)N1CCN(c2nc(OCC3CCCN3C)nc3c(F)c(-c4nc(N)cc(C)c4C(F)(F)F)c(Cl)cc23)C(C)C1
- IC50 [1]: > 10000 nM
- IC50 [2]: > 10000 nM
- IC50 [3]: > 10000 nM
- IC50 [4]: > 10000 nM
- IC50 [5]: > 10000 nM
- IC50 [6]: > 10000 nM
- viability, T/C [7]: 92.3%
- viability, T/C [8]: 107%
- viability, T/C [9]: 97.4%
- viability, T/C [10]: 96%
- viability, T/C (second compound 0.00316 µM, first compound 3.16 µM): 106%
- viability, T/C (second compound 0.00316 µM, first compound 10 µM): 101%
- viability, T/C [11]: 103%
- viability, T/C [12]: 115%
- viability, T/C [13]: 96.2%
- viability, T/C [14]: 108%
- viability, T/C (second compound 0.01 µM, first compound 3.16 µM): 104%
- viability, T/C (second compound 0.01 µM, first compound 10 µM): 100%
- viability, T/C [15]: 101%
- viability, T/C [16]: 98.9%
- viability, T/C [17]: 97.8%
- viability, T/C [18]: 97.3%
- viability, T/C (second compound 0.0316 µM, first compound 3.16 µM): 95.1%
- viability, T/C (second compound 0.0316 µM, first compound 10 µM): 101%
- viability, T/C [19]: 98.7%
- viability, T/C [20]: 110%
- viability, T/C [21]: 98.1%
- viability, T/C [22]: 105%
- viability, T/C (second compound 0.1 µM, first compound 3.16 µM): 104%
- viability, T/C (second compound 0.1 µM, first compound 10 µM): 97.9%
- viability, T/C [23]: 103%
- viability, T/C [24]: 102%
- viability, T/C [25]: 103%
- viability, T/C [26]: 105%
- viability, T/C (second compound 0.316 µM, first compound 3.16 µM): 108%
- viability, T/C (second compound 0.316 µM, first compound 10 µM): 102%
- viability, T/C [27]: 98.6%
- viability, T/C [28]: 102%
- viability, T/C [29]: 95.8%
- viability, T/C [30]: 100%
- viability, T/C (second compound 1 µM, first compound 3.16 µM): 99.9%
- viability, T/C (second compound 1 µM, first compound 10 µM): 104%

Structure (SMILES): CC1(C)CCC(Nc2ncc(C(F)(F)F)c(-c3c[nH]c4c(P(C)(C)=O)c(C#N)ccc34)n2)CN1 (centres undefined)
- viability, T/C (compound 0.000949 µM): 107% [middle of 4 runs]
- viability, T/C (compound 0.003 µM): 85% [middle of 4 runs]
- viability, T/C (compound 0.03 µM): 65.3% [middle of 4 runs]
- viability, T/C (compound 0.0949 µM): 59.4% [middle of 4 runs]
- viability, T/C (compound 0.3 µM): 57.8% [middle of 4 runs]
- IC50 (curve of compound): > 300 nM and 76.6 nM and 223 nM

Structure (SMILES): CC(C)n1nc(-c2ccc3oc(N)nc3c2)c2c(N)ncnc21 + C=CC(=O)N1CCN(c2nc(OCC3CCCN3C)nc3c(F)c(-c4nc(N)cc(C)c4C(F)(F)F)c(Cl)cc23)C(C)C1
- IC50 [1]: > 100 nM
- IC50 [2]: > 100 nM
- IC50 [3]: > 100 nM
- IC50 [4]: > 100 nM
- IC50 [5]: > 100 nM
- IC50 [6]: > 100 nM
- viability, T/C (second compound 0.00316 µM, first compound 0.000316 µM): 101%
- viability, T/C (second compound 0.00316 µM, first compound 0.001 µM): 101%
- viability, T/C [31]: 96.1%
- viability, T/C [32]: 91.7%
- viability, T/C [7]: 90.2%
- viability, T/C [8]: 93.1%
- viability, T/C (second compound 0.01 µM, first compound 0.000316 µM): 99.8%
- viability, T/C (second compound 0.01 µM, first compound 0.001 µM): 95.9%
- viability, T/C [33]: 100%
- viability, T/C [34]: 89.1%
- viability, T/C [11]: 92.7%
- viability, T/C [12]: 95.5%
- viability, T/C (second compound 0.0316 µM, first compound 0.000316 µM): 101%
- viability, T/C (second compound 0.0316 µM, first compound 0.001 µM): 102%
- viability, T/C [35]: 98.7%
- viability, T/C [36]: 95.8%
- viability, T/C [15]: 92.2%
- viability, T/C [16]: 91.4%
- viability, T/C (second compound 0.1 µM, first compound 0.000316 µM): 98.7%
- viability, T/C (second compound 0.1 µM, first compound 0.001 µM): 102%
- viability, T/C [37]: 91.3%
- viability, T/C [38]: 92.1%
- viability, T/C [19]: 105%
- viability, T/C [20]: 92.6%
- viability, T/C (second compound 0.316 µM, first compound 0.000316 µM): 97.5%
- viability, T/C (second compound 0.316 µM, first compound 0.001 µM): 105%
- viability, T/C [39]: 95.1%
- viability, T/C [40]: 102%
- viability, T/C [23]: 92.8%
- viability, T/C [24]: 94.7%
- viability, T/C (second compound 1 µM, first compound 0.000316 µM): 104%
- viability, T/C (second compound 1 µM, first compound 0.001 µM): 104%
- viability, T/C [41]: 91.5%
- viability, T/C [42]: 96.9%
- viability, T/C [27]: 94.1%
- viability, T/C [28]: 87.7%

Structure (SMILES): Nc1ccn(C2OC(CO)C(O)C2(F)F)c(=O)n1 (centres undefined) + C=CC(=O)N1CCN(c2nc(OCC3CCCN3C)nc3c(F)c(-c4nc(N)cc(C)c4C(F)(F)F)c(Cl)cc23)C(C)C1
- IC50 [1]: 62.7 nM
- IC50 [2]: 53.2 nM
- IC50 [3]: 58.9 nM
- IC50 [4]: 53.6 nM
- IC50 [5]: 60.4 nM
- IC50 [6]: 61.4 nM
- viability, T/C [31]: 90.9%
- viability, T/C [32]: 81.2%
- viability, T/C [7]: 56.9%
- viability, T/C [8]: 46.9%
- viability, T/C [9]: 24.7%
- viability, T/C [10]: 19.1%
- viability, T/C [33]: 93.9%
- viability, T/C [34]: 82%
- viability, T/C [11]: 57.8%
- viability, T/C [12]: 40.7%
- viability, T/C [13]: 23.6%
- viability, T/C [14]: 21%
- viability, T/C [35]: 99%
- viability, T/C [36]: 83.5%
- viability, T/C [15]: 57.9%
- viability, T/C [16]: 43.6%
- viability, T/C [17]: 27.1%
- viability, T/C [18]: 21.7%
- viability, T/C [37]: 93.3%
- viability, T/C [38]: 85.7%
- viability, T/C [19]: 54.3%
- viability, T/C [20]: 41.3%
- viability, T/C [21]: 31.2%
- viability, T/C [22]: 21.5%
- viability, T/C [39]: 92.3%
- viability, T/C [40]: 77.6%
- viability, T/C [23]: 61.6%
- viability, T/C [24]: 40.9%
- viability, T/C [25]: 29.4%
- viability, T/C [26]: 21.4%
- viability, T/C [41]: 92%
- viability, T/C [42]: 85.8%
- viability, T/C [27]: 58.8%
- viability, T/C [28]: 43%
- viability, T/C [29]: 29.2%
- viability, T/C [30]: 23.1%

Structure (SMILES): Cc1nc(N2CCC3(CC2)COC(C)C3N)c(CO)nc1Sc1ccnc(N)c1Cl (centres undefined)
- viability, T/C (compound 0.0316 µM): 96.6% [middle of 4 runs]
- viability, T/C (compound 0.1 µM): 99.8% [middle of 4 runs]
- viability, T/C (compound 0.316 µM): 93.7% [middle of 4 runs]
- viability, T/C (compound 1 µM): 94.7% [middle of 4 runs]
- viability, T/C (compound 3.16 µM): 98.3% [middle of 4 runs]
- viability, T/C (compound 10 µM): 104% [middle of 4 runs]
- IC50 (curve of compound): > 10000 nM
